Values after ≈ are worked out from the molar mass of the structure shown. Values joined by “and” are separate entries in the source; they are usually repeats but may differ in a detail not shown here. Identical values can stand only once. Like-named read-outs stand apart in the source and are kept apart here.
Columns and labels:
P. aeruginosa DSM1117 = experiment: MIC, standard microdilution assay, growing P. aeruginosa; type: cell-based, Pseudomonas aeruginosa; settings: Pseudomonas aeruginosa, DSM1117; P. aeruginosa; CA-MHB pH 7.4; read-out: MIC (μM) CA-MHB
How it was run: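 Each strain was exposed to serially diluted compound in broth, in triplicate. The media were TSB for Shigella; CA-MHB at pH 7.4 (HEPES 40 mM) for S. aureus, P. aeruginosa and UPEC; and, for UPEC only, low-pH LPM (pH 5.5, 30 mM MES).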

non-growing UPEC CFT073 [1] = experiment: Dose-dependent killing analysis (CFU spot-plating) of stationary-phase UPEC; type: cell-based, Escherichia coli
How it was run: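 Non-growing (stationary-phase) UPEC CFT073 treated with compounds in 96-well format at 200 μl, then 10-fold serially diluted in PBS and 10 μl spots plated on LB agar. Plates incubated overnight at 37 °C; colonies counted at lowest resolvable dilution to give CFU. Three biological replicates.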

non-growing UPEC CFT073 [2] = experiment: Dilution-regrowth assay (screen, hit validation, dose-response) on stationary-phase UPEC; type: cell-based, Escherichia coli; settings: for Regrowth: OD600 after dilution into drug-free medium (mean): OD600 at 6h or 8h; for EC50: Escherichia coli
How it was run: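 Regrowth (OD600 after 6 h, 37 °C) of diluted non-growing CFT073, following 24 h compound treatment of 24 h stationary cultures, defines activity relative to untreated control. Screen at 20 µM, validation at 20, 10, 5 µM (duplicates), dose–response in three biological replicates fitted by five-parameter logistic.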

[3] = system: non-growing S. aureus DSM2569; experiment: Dilution-regrowth assay (OD600, start-growth-time) on stationary-phase S. aureus; type: cell-based, Staphylococcus aureus; settings: S. aureus; for Regrowth: OD600 after dilution into drug-free medium (mean): OD600 at 6h or 8h
How it was run: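 Stationary-phase S. aureus cultures were grown and exposed to compound for 24 h in 1:4 CA-MHB (pH 7.4) at 37 °C in 96-well plates with 200 μl volume. After dilution into drug-free medium, regrowth was tracked in a plate reader at 37 °C with continuous shaking, reading OD600 every 20 min; EC50 came from five-parameter logistic fitting.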

[4] = E. coli in 1:4 CA-MHB (pH 7.4), concentration 0.25
[5] = E. coli in 1:4 CA-MHB (pH 7.4), concentration 0.5
[6] = E. coli in 1:4 CA-MHB (pH 7.4), concentration 1
[7] = E. coli in 1:4 CA-MHB (pH 7.4), concentration 2.5
[8] = E. coli in 1:4 CA-MHB (pH 7.4), concentration 5
[9] = E. coli in 1:4 CA-MHB (pH 7.4), concentration 10
[10] = E. coli in LPM (pH 5.5), concentration 0.25
[11] = E. coli in LPM (pH 5.5), concentration 0.5
[12] = E. coli in LPM (pH 5.5), concentration 1
[13] = E. coli in LPM (pH 5.5), concentration 2.5
[14] = E. coli in LPM (pH 5.5), concentration 5
[15] = E. coli in LPM (pH 5.5), concentration 10

CO[C@H]1/C=C/O[C@@]2(C)Oc3c(C)c(O)c4c(O)c(c(/C=N/N5CCN(C6CCCC6)CC5)c(O)c4c3C2=O)NC(=O)/C(C)=C\C=C\[C@H](C)[C@H](O)[C@@H](C)[C@@H](O)[C@@H](C)[C@H](OC(C)=O)[C@@H]1C [Rifapentine]
MIC (P. aeruginosa DSM1117): 80 µM (≈ 70.2 µg/mL) | log10(CFU/ml) after treatment, single replicates (non-growing UPEC CFT073 [1]; [4]): 9.114 log10(CFU/ml) and 8.301 log10(CFU/ml) and 8.415 log10(CFU/ml) | Killing: average Δlog10(CFU/ml) (non-growing UPEC CFT073 [1]; E. coli in 1:4 CA-MHB (pH 7.4), concentration 0.25, vs 8.977 before treatment): 0.367 log10(CFU/ml) | log10(CFU/ml) after treatment, single replicates (non-growing UPEC CFT073 [1]; [5]): 9.301 log10(CFU/ml) and 8.778 log10(CFU/ml) and 8.380 log10(CFU/ml) | Killing: average Δlog10(CFU/ml) (non-growing UPEC CFT073 [1]; E. coli in 1:4 CA-MHB (pH 7.4), concentration 0.5, vs 8.977 before treatment): 0.158 log10(CFU/ml) | log10(CFU/ml) after treatment, single replicates (non-growing UPEC CFT073 [1]; [6]): 9.079 log10(CFU/ml) and 8.602 log10(CFU/ml) and 8.342 log10(CFU/ml) | Killing: average Δlog10(CFU/ml) (non-growing UPEC CFT073 [1]; E. coli in 1:4 CA-MHB (pH 7.4), concentration 1, vs 8.977 before treatment): 0.303 log10(CFU/ml) | log10(CFU/ml) after treatment, single replicates (non-growing UPEC CFT073 [1]; [7]): 9.176 log10(CFU/ml) and 9.204 log10(CFU/ml) and 8.845 log10(CFU/ml) | Killing: average Δlog10(CFU/ml) (non-growing UPEC CFT073 [1]; E. coli in 1:4 CA-MHB (pH 7.4), concentration 2.5, vs 8.977 before treatment): -0.098 log10(CFU/ml) | log10(CFU/ml) after treatment, single replicates (non-growing UPEC CFT073 [1]; [8]): 9.204 log10(CFU/ml) and 8.699 log10(CFU/ml) (2×) | Killing: average Δlog10(CFU/ml) (non-growing UPEC CFT073 [1]; E. coli in 1:4 CA-MHB (pH 7.4), concentration 5, vs 8.977 before treatment): 0.110 log10(CFU/ml) | log10(CFU/ml) after treatment, single replicates (non-growing UPEC CFT073 [1]; [9]): 9.114 log10(CFU/ml) and 8.362 log10(CFU/ml) and 8.204 log10(CFU/ml) | Killing: average Δlog10(CFU/ml) (non-growing UPEC CFT073 [1]; E. coli in 1:4 CA-MHB (pH 7.4), concentration 10, vs 8.977 before treatment): 0.417 log10(CFU/ml) | log10(CFU/ml) after treatment, single replicates (non-growing UPEC CFT073 [1]; [10]): 7.000 log10(CFU/ml) and 6.519 log10(CFU/ml) and 7.613 log10(CFU/ml) | Killing: average Δlog10(CFU/ml) (non-growing UPEC CFT073 [1]; E. coli in LPM (pH 5.5), concentration 0.25, vs 7.350 before treatment): 0.307 log10(CFU/ml) | log10(CFU/ml) after treatment, single replicates (non-growing UPEC CFT073 [1]; [11]): 6.954 log10(CFU/ml) and 6.699 log10(CFU/ml) and 7.531 log10(CFU/ml) | Killing: average Δlog10(CFU/ml) (non-growing UPEC CFT073 [1]; E. coli in LPM (pH 5.5), concentration 0.5, vs 7.350 before treatment): 0.289 log10(CFU/ml) | log10(CFU/ml) after treatment, single replicates (non-growing UPEC CFT073 [1]; [12]): 6.778 log10(CFU/ml) and 6.602 log10(CFU/ml) and 7.613 log10(CFU/ml) | Killing: average Δlog10(CFU/ml) (non-growing UPEC CFT073 [1]; E. coli in LPM (pH 5.5), concentration 1, vs 7.350 before treatment): 0.353 log10(CFU/ml) | log10(CFU/ml) after treatment, single replicates (non-growing UPEC CFT073 [1]; [13]): 7.079 log10(CFU/ml) and 6.447 log10(CFU/ml) and 7.491 log10(CFU/ml) | Killing: average Δlog10(CFU/ml) (non-growing UPEC CFT073 [1]; E. coli in LPM (pH 5.5), concentration 2.5, vs 7.350 before treatment): 0.344 log10(CFU/ml) | log10(CFU/ml) after treatment, single replicates (non-growing UPEC CFT073 [1]; [14]): 7.204 log10(CFU/ml) and 6.845 log10(CFU/ml) and 7.301 log10(CFU/ml) | Killing: average Δlog10(CFU/ml) (non-growing UPEC CFT073 [1]; E. coli in LPM (pH 5.5), concentration 5, vs 7.350 before treatment): 0.234 log10(CFU/ml) | log10(CFU/ml) after treatment, single replicates (non-growing UPEC CFT073 [1]; [15]): 6.778 log10(CFU/ml) and 7.041 log10(CFU/ml) and 7.204 log10(CFU/ml) | Killing: average Δlog10(CFU/ml) (non-growing UPEC CFT073 [1]; E. coli in LPM (pH 5.5), concentration 10, vs 7.350 before treatment): 0.342 log10(CFU/ml) | Regrowth: OD600 after dilution into drug-free medium (mean) (non-growing UPEC CFT073 [2]; [4]): 0.612 | Regrowth: OD600 after dilution into drug-free medium (mean) (non-growing UPEC CFT073 [2]; [5]): 0.591 | Regrowth: OD600 after dilution into drug-free medium (mean) (non-growing UPEC CFT073 [2]; [6]): 0.589 | Regrowth: OD600 after dilution into drug-free medium (mean) (non-growing UPEC CFT073 [2]; [7]): 0.581 | Regrowth: OD600 after dilution into drug-free medium (mean) (non-growing UPEC CFT073 [2]; [8]): 0.558 | Regrowth: OD600 after dilution into drug-free medium (mean) (non-growing UPEC CFT073 [2]; [9]): 0.549 | Regrowth: OD600 after dilution into drug-free medium (mean) (non-growing UPEC CFT073 [2]; E. coli in 1:4 CA-MHB (pH 7.4), concentration 30): 0.527 | Regrowth: OD600 after dilution into drug-free medium (mean) (non-growing UPEC CFT073 [2]; [10]): 0.548 | Regrowth: OD600 after dilution into drug-free medium (mean) (non-growing UPEC CFT073 [2]; [11]): 0.505 | Regrowth: OD600 after dilution into drug-free medium (mean) (non-growing UPEC CFT073 [2]; [12]): 0.379 | Regrowth: OD600 after dilution into drug-free medium (mean) (non-growing UPEC CFT073 [2]; [13]): 0.232 | Regrowth: OD600 after dilution into drug-free medium (mean) (non-growing UPEC CFT073 [2]; [14]): 0.178 | Regrowth: OD600 after dilution into drug-free medium (mean) (non-growing UPEC CFT073 [2]; [15]): 0.148 | Regrowth: OD600 after dilution into drug-free medium (mean) (non-growing UPEC CFT073 [2]; E. coli in LPM (pH 5.5), concentration 30): 0.112 | EC50 (non-growing UPEC CFT073 [2]; E. coli, LPM pH 5.5, regrowth delay of non-growing bacteria, 24 h treatment, OD600 6 h after 2500-fold dilution, read-out: EC50): 1160 nM | EC50 (non-growing UPEC CFT073 [2]; LPM pH 5.5 (red curve), medium assigned by comparison with Dataset 1, read-out: EC50 (regrowth inhibition curve, Fig. S4)): 1190 nM | Regrowth: OD600 after dilution into drug-free medium (mean) ([3]; concentration 0.1): 0.215 | Regrowth: OD600 after dilution into drug-free medium (mean) ([3]; concentration 0.5): 0.149 | Regrowth: OD600 after dilution into drug-free medium (mean) ([3]; concentration 2.5): 0.116 | Regrowth: OD600 after dilution into drug-free medium (mean) ([3]; concentration 10): 0.091 | EC50 ([3]; Staphylococcus aureus, DSM2569, regrowth delay of non-growing bacteria, 1:4 CA-MHB pH 7.4, 24 h treatment, OD600 8 h after dilution, read-out: EC50): 41 nM

From paper PMC11992225, “Antibacterial compounds against non-growing and intracellular bacteria” (npj Antimicrobials and Resistance, 2025)
